Assay results from ChEMBL document CHEMBL1212709, “Design of isoform-selective phospholipase D inhibitors that modulate cancer cell invasiveness” (Nat Chem Biol, 2009).

target: T1, Phospholipase D1 (Rattus norvegicus, UniProt P70496); test: Inhibition of N-terminally truncated rat PLD1 assessed as release of methyl-[3H]choline from choline-methyl-[3H]dipalmitoylphosphatidylcholine after 30 mins by exogenous substrate assay
T1 sequence (P70496 whole entry): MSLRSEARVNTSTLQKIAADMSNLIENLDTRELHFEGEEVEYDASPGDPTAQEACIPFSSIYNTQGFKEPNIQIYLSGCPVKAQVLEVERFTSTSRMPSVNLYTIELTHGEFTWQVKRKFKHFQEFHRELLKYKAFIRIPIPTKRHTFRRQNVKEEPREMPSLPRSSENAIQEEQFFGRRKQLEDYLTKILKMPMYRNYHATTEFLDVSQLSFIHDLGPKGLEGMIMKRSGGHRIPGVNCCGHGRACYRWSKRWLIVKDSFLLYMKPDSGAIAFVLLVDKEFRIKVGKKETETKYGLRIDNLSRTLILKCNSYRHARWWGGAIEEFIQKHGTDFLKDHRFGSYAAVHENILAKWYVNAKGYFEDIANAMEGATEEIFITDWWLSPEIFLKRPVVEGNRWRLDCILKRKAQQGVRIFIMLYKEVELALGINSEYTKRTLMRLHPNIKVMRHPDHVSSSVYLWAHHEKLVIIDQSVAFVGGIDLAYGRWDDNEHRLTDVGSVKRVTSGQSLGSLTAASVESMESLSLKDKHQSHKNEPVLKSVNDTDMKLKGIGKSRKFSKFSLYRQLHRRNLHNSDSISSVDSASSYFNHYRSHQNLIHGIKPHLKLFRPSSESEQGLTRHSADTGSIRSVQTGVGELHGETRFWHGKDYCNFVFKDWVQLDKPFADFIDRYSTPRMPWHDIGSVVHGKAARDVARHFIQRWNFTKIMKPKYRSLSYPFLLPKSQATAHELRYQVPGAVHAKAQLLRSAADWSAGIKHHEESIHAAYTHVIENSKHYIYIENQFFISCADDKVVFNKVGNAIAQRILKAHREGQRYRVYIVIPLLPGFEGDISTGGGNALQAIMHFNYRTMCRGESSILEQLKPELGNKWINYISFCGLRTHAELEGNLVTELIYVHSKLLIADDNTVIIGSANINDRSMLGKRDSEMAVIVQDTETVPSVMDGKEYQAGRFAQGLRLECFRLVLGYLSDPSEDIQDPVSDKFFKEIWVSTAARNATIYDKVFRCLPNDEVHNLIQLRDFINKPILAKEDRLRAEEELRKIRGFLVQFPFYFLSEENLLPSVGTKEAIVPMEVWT

SMILES	IC50 [nM]
O=C(NCCN1CCC(n2c(=O)[nH]c3ccccc32)CC1)c1cc2ccccc2s1	1000
O=C(NCCN1CCC(n2c(=O)[nH]c3ccccc32)CC1)n1c2ccccc2c2ccccc21	7200
O=C(NCCN1CCC(n2c(O)nc3ccccc32)CC1)c1ccc(Cl)c(Cl)c1	910
O=C(NCCN1CCC(n2c(O)nc3ccccc32)CC1)c1cccc2c1-c1ccccc1C2=O	1100
Cc1ccc(C(=O)NCCN2CCC(n3c(O)nc4ccccc43)CC2)cc1	1700
O=C(NCCN1CCC2(CC1)C(=O)NCN2c1ccccc1)c1ccc(C(F)(F)F)cc1	> 20000
O=C(NCCN1CCC(n2c(=O)[nH]c3ccccc32)CC1)c1cc(Br)c(Br)o1	2900
O=C(NCCN1CCC2(CC1)C(=O)NCN2c1ccccc1)c1ccc2ccccc2c1	> 20000
CCC(=C(c1ccc(O)cc1)c1ccc(OCCN(C)C)cc1)c1ccccc1	28000
O=C(NCCN1CCC(n2c(=O)[nH]c3ccccc32)CC1)c1cc(Cl)cc(Cl)c1	3500
O=C(NCCN1CCC(n2c(O)nc3ccccc32)CC1)c1ccc(Cl)cc1	910
O=C(c1ccc(OCCN2CCCCC2)cc1)c1c(-c2ccc(O)cc2)sc2cc(O)ccc12 [RALOXIFENE]	> 20000
O=C(c1ccc(F)cc1)N(CCN1CCC(n2c(=O)[nH]c3ccccc32)CC1)C(=O)c1ccc(F)cc1	870
O=C(NCCN1CCC(n2c(=O)[nH]c3ccccc32)CC1)c1cc2cc(F)ccc2[nH]1	33
COc1ccc(C(=O)NCCN2CCC(n3c(=O)[nH]c4ccccc43)CC2)cc1	> 20000
O=C(NCCN1CCC(n2c(=O)[nH]c3ccccc32)CC1)c1ccc[nH]1	1500

test system: not listed separately; test: Inhibition of in Streptomyces chromofuscus PLD

IC50 [nM]	SMILES
100	CC(C)=CCC/C(C)=C/CC/C(C)=C/[C@H]1[C@H](COP(=O)(O)OP(=O)(O)O)[C@@]1(C)CC/C=C(\C)CCC=C(C)C [Z-PSDP]

target: T2, Phospholipase D1 (Homo sapiens, UniProt Q13393); test: Inhibition of human PLD1b
T2 sequence (Q13393 whole entry): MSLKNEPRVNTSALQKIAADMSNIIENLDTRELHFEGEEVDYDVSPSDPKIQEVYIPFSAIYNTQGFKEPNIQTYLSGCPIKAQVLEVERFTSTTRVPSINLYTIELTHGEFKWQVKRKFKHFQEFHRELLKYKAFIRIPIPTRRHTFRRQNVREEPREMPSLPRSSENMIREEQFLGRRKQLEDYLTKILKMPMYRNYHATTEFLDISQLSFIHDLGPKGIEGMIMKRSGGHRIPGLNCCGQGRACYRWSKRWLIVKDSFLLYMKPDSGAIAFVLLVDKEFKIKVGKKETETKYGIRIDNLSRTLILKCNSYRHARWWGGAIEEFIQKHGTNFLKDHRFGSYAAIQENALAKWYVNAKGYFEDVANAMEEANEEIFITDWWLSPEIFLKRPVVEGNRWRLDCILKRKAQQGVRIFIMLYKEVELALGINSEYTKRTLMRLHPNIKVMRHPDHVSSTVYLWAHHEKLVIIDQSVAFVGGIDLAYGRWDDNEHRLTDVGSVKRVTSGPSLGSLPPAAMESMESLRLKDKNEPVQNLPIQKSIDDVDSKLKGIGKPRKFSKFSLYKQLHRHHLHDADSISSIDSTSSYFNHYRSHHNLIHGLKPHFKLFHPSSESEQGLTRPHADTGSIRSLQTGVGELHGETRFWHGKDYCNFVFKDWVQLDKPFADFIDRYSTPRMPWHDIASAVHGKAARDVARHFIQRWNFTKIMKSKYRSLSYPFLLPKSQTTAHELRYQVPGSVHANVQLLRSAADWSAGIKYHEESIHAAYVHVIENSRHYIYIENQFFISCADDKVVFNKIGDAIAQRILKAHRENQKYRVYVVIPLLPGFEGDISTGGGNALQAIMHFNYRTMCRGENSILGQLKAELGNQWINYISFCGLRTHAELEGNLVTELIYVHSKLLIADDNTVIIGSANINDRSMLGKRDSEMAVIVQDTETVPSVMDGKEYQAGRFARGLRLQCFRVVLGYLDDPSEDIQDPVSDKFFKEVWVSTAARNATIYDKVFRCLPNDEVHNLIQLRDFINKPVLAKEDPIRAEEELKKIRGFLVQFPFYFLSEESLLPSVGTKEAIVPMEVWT

SMILES	IC50 [nM]
CC(C)=CCC/C(C)=C/CC/C(C)=C/[C@H]1[C@H](COP(=O)(O)OP(=O)(O)O)[C@@]1(C)CC/C=C(\C)CCC=C(C)C [Z-PSDP]	> 1000

test system: not listed separately; test: Inhibition of PLD

IC50 [nM]	SMILES
> 60000	Oc1ccc(/C=C/c2cc(O)cc(O)c2)cc1 [RESVERATROL]

target: T2, Phospholipase D1; test: Inhibition of human PLD1 assessed as release of methyl-[3H]choline from choline-methyl-[3H]dipalmitoylphosphatidylcholine after 30 mins by exogenous substrate assay

SMILES	IC50 [nM]
C=Cc1ccc(C(=O)NCCN2CCC(n3c(=O)[nH]c4ccccc43)CC2)cc1	540
O=C(NCCN1CCC(n2c(=O)[nH]c3ccccc32)CC1)c1cc2ccccc2s1	100
O=C(NCCN1CCC(n2c(=O)[nH]c3ccccc32)CC1)n1c2ccccc2c2ccccc21	300
O=C(NCCN1CCC(n2c(O)nc3ccccc32)CC1)c1ccc(Cl)c(Cl)c1	46
O=C(NCCN1CCC(n2c(O)nc3ccccc32)CC1)c1cccc2c1-c1ccccc1C2=O	260
Cc1ccc(C(=O)NCCN2CCC(n3c(O)nc4ccccc43)CC2)cc1	780
O=C(NCCN1CCC(n2c(=O)[nH]c3ccccc32)CC1)c1cc(Br)c(Br)o1	79
O=C(NCCN1CCC(n2c(=O)[nH]c3ccccc32)CC1)c1cc(Cl)cc(Cl)c1	400
O=C(NCCN1CCC(n2c(O)nc3ccccc32)CC1)c1ccc(Cl)cc1	55
O=C(c1ccc(OCCN2CCCCC2)cc1)c1c(-c2ccc(O)cc2)sc2cc(O)ccc12 [RALOXIFENE]	4300
O=C(c1ccc(F)cc1)N(CCN1CCC(n2c(=O)[nH]c3ccccc32)CC1)C(=O)c1ccc(F)cc1	1400
O=C(NCCN1CCC(n2c(=O)[nH]c3ccccc32)CC1)c1cc2cc(F)ccc2[nH]1	9.5
COc1ccc(C(=O)NCCN2CCC(n3c(=O)[nH]c4ccccc43)CC2)cc1	15000
O=C(NCCN1CCC(n2c(=O)[nH]c3ccccc32)CC1)c1ccc[nH]1	316

target: T3, Phospholipase D2 (Homo sapiens, UniProt O14939); test: Inhibition of human PLD2 assessed as release of methyl-[3H]choline from choline-methyl-[3H]dipalmitoylphosphatidylcholine after 30 mins by exogenous substrate assay
T3 sequence (O14939 whole entry): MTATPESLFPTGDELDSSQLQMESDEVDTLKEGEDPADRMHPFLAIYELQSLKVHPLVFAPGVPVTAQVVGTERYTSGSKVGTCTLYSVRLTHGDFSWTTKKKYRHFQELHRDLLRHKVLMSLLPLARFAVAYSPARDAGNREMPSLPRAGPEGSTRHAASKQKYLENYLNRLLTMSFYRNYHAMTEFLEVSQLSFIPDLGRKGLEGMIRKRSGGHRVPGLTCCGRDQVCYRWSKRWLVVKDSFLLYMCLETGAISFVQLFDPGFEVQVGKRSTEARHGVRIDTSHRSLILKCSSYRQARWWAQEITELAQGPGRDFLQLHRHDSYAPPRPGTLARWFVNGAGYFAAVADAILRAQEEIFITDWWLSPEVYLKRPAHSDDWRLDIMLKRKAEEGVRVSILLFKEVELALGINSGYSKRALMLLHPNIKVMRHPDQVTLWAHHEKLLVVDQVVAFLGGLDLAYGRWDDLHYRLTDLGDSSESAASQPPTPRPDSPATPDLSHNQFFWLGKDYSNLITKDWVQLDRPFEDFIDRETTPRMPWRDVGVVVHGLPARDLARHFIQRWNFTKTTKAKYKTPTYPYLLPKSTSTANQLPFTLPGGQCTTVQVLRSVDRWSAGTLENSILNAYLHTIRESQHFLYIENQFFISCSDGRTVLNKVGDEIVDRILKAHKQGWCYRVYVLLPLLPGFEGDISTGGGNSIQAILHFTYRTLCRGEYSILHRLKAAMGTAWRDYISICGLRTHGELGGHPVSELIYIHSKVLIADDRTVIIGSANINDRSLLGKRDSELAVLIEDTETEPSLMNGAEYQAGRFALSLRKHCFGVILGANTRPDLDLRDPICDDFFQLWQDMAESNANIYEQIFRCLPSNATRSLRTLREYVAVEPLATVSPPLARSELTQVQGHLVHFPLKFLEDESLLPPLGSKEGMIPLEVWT

SMILES	IC50 [nM]
O=C(NCCN1CCC(n2c(=O)[nH]c3ccccc32)CC1)c1cc2ccccc2s1	340
O=C(NCCN1CCC(n2c(=O)[nH]c3ccccc32)CC1)n1c2ccccc2c2ccccc21	1000
O=C(NCCN1CCC(n2c(O)nc3ccccc32)CC1)c1ccc(Cl)c(Cl)c1	250
O=C(NCCN1CCC(n2c(O)nc3ccccc32)CC1)c1cccc2c1-c1ccccc1C2=O	600
Cc1ccc(C(=O)NCCN2CCC(n3c(O)nc4ccccc43)CC2)cc1	1100
O=C(NCCN1CCC2(CC1)C(=O)NCN2c1ccccc1)c1ccc(C(F)(F)F)cc1	4300
O=C(NCCN1CCC(n2c(=O)[nH]c3ccccc32)CC1)c1cc(Br)c(Br)o1	170
O=C(NCCN1CCC(n2c(=O)[nH]c3ccccc32)CC1)c1cc(Cl)cc(Cl)c1	1900
O=C(NCCN1CCC(n2c(O)nc3ccccc32)CC1)c1ccc(Cl)cc1	130
O=C(c1ccc(OCCN2CCCCC2)cc1)c1c(-c2ccc(O)cc2)sc2cc(O)ccc12 [RALOXIFENE]	3400
O=C(c1ccc(F)cc1)N(CCN1CCC(n2c(=O)[nH]c3ccccc32)CC1)C(=O)c1ccc(F)cc1	2200
O=C(NCCN1CCC(n2c(=O)[nH]c3ccccc32)CC1)c1cc2cc(F)ccc2[nH]1	17
COc1ccc(C(=O)NCCN2CCC(n3c(=O)[nH]c4ccccc43)CC2)cc1	> 20000
O=C(NCCN1CCC(n2c(=O)[nH]c3ccccc32)CC1)c1ccc[nH]1	1200

target: T3, Phospholipase D2; test: Inhibition of GFP-tagged human PLD2 expressed in human HEK293 cells assessed as decrease in phosphatidylbutanol-[d9] production after 30 mins by mass spectrometric analysis; format: cell-based

SMILES	IC50 [nM]
O=C(NCCN1CCC(n2c(=O)[nH]c3ccccc32)CC1)c1cc2ccccc2s1	210
O=C(NCCN1CCC(n2c(=O)[nH]c3ccccc32)CC1)n1c2ccccc2c2ccccc21	260
O=C(NCCN1CCC(n2c(O)nc3ccccc32)CC1)c1ccc(Cl)c(Cl)c1	220
O=C(NCCN1CCC(n2c(O)nc3ccccc32)CC1)c1cccc2c1-c1ccccc1C2=O	1000
Cc1ccc(C(=O)NCCN2CCC(n3c(O)nc4ccccc43)CC2)cc1	210
O=C(NCCN1CCC(n2c(=O)[nH]c3ccccc32)CC1)c1cc(Br)c(Br)o1	220
O=C(NCCN1CCC(n2c(=O)[nH]c3ccccc32)CC1)c1cc(Cl)cc(Cl)c1	1100
O=C(NCCN1CCC(n2c(O)nc3ccccc32)CC1)c1ccc(Cl)cc1	140
O=C(c1ccc(OCCN2CCCCC2)cc1)c1c(-c2ccc(O)cc2)sc2cc(O)ccc12 [RALOXIFENE]	10000
O=C(c1ccc(F)cc1)N(CCN1CCC(n2c(=O)[nH]c3ccccc32)CC1)C(=O)c1ccc(F)cc1	470
COc1ccc(C(=O)NCCN2CCC(n3c(=O)[nH]c4ccccc43)CC2)cc1	1100
O=C(NCCN1CCC(n2c(=O)[nH]c3ccccc32)CC1)c1ccc[nH]1	340

target: T2, Phospholipase D1

IC50 [nM]	SMILES
79	C=Cc1ccc(C(=O)NCCN2CCC(n3c(=O)[nH]c4ccccc43)CC2)cc1
14	O=C(NCCN1CCC(n2c(=O)[nH]c3ccccc32)CC1)c1cc2ccccc2s1
330	O=C(NCCN1CCC(n2c(=O)[nH]c3ccccc32)CC1)n1c2ccccc2c2ccccc21
19	O=C(NCCN1CCC(n2c(O)nc3ccccc32)CC1)c1ccc(Cl)c(Cl)c1
20	O=C(NCCN1CCC(n2c(O)nc3ccccc32)CC1)c1cccc2c1-c1ccccc1C2=O
32	Cc1ccc(C(=O)NCCN2CCC(n3c(O)nc4ccccc43)CC2)cc1
8.9	O=C(NCCN1CCC(n2c(=O)[nH]c3ccccc32)CC1)c1cc(Br)c(Br)o1
85	O=C(NCCN1CCC(n2c(=O)[nH]c3ccccc32)CC1)c1cc(Cl)cc(Cl)c1
6.3	O=C(NCCN1CCC(n2c(O)nc3ccccc32)CC1)c1ccc(Cl)cc1
48	O=C(c1ccc(F)cc1)N(CCN1CCC(n2c(=O)[nH]c3ccccc32)CC1)C(=O)c1ccc(F)cc1
1	O=C(NCCN1CCC(n2c(=O)[nH]c3ccccc32)CC1)c1cc2cc(F)ccc2[nH]1
37	O=C(NCCN1CCC(n2c(=O)[nH]c3ccccc32)CC1)c1ccc[nH]1

SMILES	IC50 [nM]
CCC(=C(c1ccc(O)cc1)c1ccc(OCCN(C)C)cc1)c1ccccc1	4800
O=C(c1ccc(OCCN2CCCCC2)cc1)c1c(-c2ccc(O)cc2)sc2cc(O)ccc12 [RALOXIFENE]	8500
COc1ccc(C(=O)NCCN2CCC(n3c(=O)[nH]c4ccccc43)CC2)cc1	1000
